# Data reported in patent publication US20260284208A1, “SYSTEM” (Oxford University Innovation Limited, priority 2023, published 2026).
# Experiments:
# [1] = test system: library of 8,380 IKZF3 degrons (ZF-eGFP/mCherry reporter) in Jurkat cells; test: Pooled library screen (FACS, NGS, limma voom LogFC of positive vs negative read counts); type: cell-based, human
# In short: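 Cells were lentivirally transduced at MOI <0.3, and mCherry+ cells were sorted 6 days later. Eight days after sorting, cells were treated with DMSO or thalidomide analog for 18 h at 37 °C. mCherry+GFPlow (DMSO-set gate, DAPI-excluded) and remaining cells were sorted, and degrons were PCR-amplified from gDNA and sequenced (>600× coverage, 3 biological replicates).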
# [2] = biological target: Q147A mutated ZF (ANQS) fused to eGFP (Homo sapiens, UniProt Q96SW2+Q9UKT9, Q147A); test: GFP degradation flow cytometry assay, Q147A mutant ZF-eGFP; type: cell-based
# Q147A mutated ZF (ANQS) fused to eGFP, sequence (Q9UKT9 130-189 Q147A): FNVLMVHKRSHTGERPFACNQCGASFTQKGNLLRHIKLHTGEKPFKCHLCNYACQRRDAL
# Q147A mutated ZF (ANQS) fused to eGFP, sequence (Q96SW2 whole entry, the tested form may be a part): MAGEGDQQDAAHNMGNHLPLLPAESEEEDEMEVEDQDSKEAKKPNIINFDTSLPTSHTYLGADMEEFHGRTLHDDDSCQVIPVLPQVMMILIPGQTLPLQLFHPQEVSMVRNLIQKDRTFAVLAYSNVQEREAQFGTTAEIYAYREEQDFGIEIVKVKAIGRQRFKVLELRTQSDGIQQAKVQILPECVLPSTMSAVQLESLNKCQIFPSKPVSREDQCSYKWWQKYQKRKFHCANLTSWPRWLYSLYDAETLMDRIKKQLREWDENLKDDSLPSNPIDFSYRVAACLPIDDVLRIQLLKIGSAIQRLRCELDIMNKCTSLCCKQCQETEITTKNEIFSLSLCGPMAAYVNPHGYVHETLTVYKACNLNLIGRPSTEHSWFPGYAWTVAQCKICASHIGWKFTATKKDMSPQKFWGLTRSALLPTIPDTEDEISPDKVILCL
# Description: Jurkat cells were added to 96 well U-bottom assay plates (Falcon) at 1×10^5 cells per well and treated with compounds for 18 hours at 37° C. and 5% CO2. Cells were stained with 1 μg/mL DAPI (ThermoFisher) and acquired on a Cytoflex S (Beckman Coulter). Data was analysed using FlowJo 10.8.1 (BD).
# To probe the potential for orthogonality in a bump-and-hole context, the same assay was carried out again on all compounds, but this time with a Q147A mutated ZF.
# The pDC50 values derived from this screen were used along with the pDC50 values from the WT screen to assign an orthogonality index value to every compound according the following equation: […]
smiles,measurement,setting,value
"CC(C)(C)c1ccc2c(c1)C(=O)N(C1CCC(=O)NC1=O)C2=O (stereo not drawn) [A63, 5-(tert-butyl)-2-(2,6-dioxopiperidin-3-yl)isoindoline-1,3-dione]",position of the WT sequence in the volcano plot of the library screen,[1]; WT ZF sequence,far away from the ‘hits’ region
same,"A63_logFC (Estimated LogFC Coefficient, positive vs negative read counts)","[1]; mutant degron: Degron-ID 214, SEQ ID NO 1763, 46F_47A_49P_50Q_52G_53A_54R_55F_67L",2.012
same,"A63_logFC (Estimated LogFC Coefficient, positive vs negative read counts)","[1]; mutant degron: Degron-ID 1093, SEQ ID NO 1762, 46F 47F_49N_50I_52G_53A 54Q 55F 67L",2.015
same,"A63_logFC (Estimated LogFC Coefficient, positive vs negative read counts)","[1]; mutant degron: Degron-ID 1448, SEQ ID NO 1767, 46F_47H_49D_50I_52G_53A_54K_55F_67L",2.005
same,"A63_logFC (Estimated LogFC Coefficient, positive vs negative read counts)","[1]; mutant degron: Degron-ID 1792, SEQ ID NO 1752, 46F 47I 49E_50V_52G_53A 54P 55F 67L",2.03
same,"A63_logFC (Estimated LogFC Coefficient, positive vs negative read counts)","[1]; mutant degron: Degron-ID 2032, SEQ ID NO 1761, 46F_47K_49E_50V_52G_53A_54P 55F 67L",2.016
same,"A63_logFC (Estimated LogFC Coefficient, positive vs negative read counts)","[1]; mutant degron: Degron-ID 2220, SEQ ID NO 1759, 46F_47L_49E_50I_52G_53A_54A_55F_67L",2.022
same,"A63_logFC (Estimated LogFC Coefficient, positive vs negative read counts)","[1]; mutant degron: Degron-ID 2352, SEQ ID NO 1758, 46F_47L_49P_50I_52G_53A 54P 55F_67L",2.022
same,"A63_logFC (Estimated LogFC Coefficient, positive vs negative read counts)","[1]; mutant degron: Degron-ID 2873, SEQ ID NO 1765, 46F_47N_49P_50V_52G_53A_54Q_55F_67L",2.01
same,"A63_logFC (Estimated LogFC Coefficient, positive vs negative read counts)","[1]; mutant degron: Degron-ID 2874, SEQ ID NO 1756, 46F_47N_49P_50V_52G_53A_54R_55F_67L",2.023
same,"A63_logFC (Estimated LogFC Coefficient, positive vs negative read counts)","[1]; mutant degron: Degron-ID 3479, SEQ ID NO 1750, 46F_47S_49E_50V_52G_53A_54Y_55F_67L",2.034
same,"A63_logFC (Estimated LogFC Coefficient, positive vs negative read counts)","[1]; mutant degron: Degron-ID 3732, SEQ ID NO 1751, 46F 47T 49N 50I 52G 53A 54P 55F 67L",2.034
same,"A63_logFC (Estimated LogFC Coefficient, positive vs negative read counts)","[1]; mutant degron: Degron-ID 4130, SEQ ID NO 1769, 46F_47W_49D_50V_52G_53A_54M_55F_67L",2.004
same,"A63_logFC (Estimated LogFC Coefficient, positive vs negative read counts)","[1]; mutant degron: Degron-ID 4210, SEQ ID NO 1753, 46F_47W_49N_50I_52G_53A_54M_55F 67L",2.029
same,"A63_logFC (Estimated LogFC Coefficient, positive vs negative read counts)","[1]; mutant degron: Degron-ID 4213, SEQ ID NO 1757, 46F_47W_49N_50I_52G_53A_54Q_55F_67L",2.023
same,"A63_logFC (Estimated LogFC Coefficient, positive vs negative read counts)","[1]; mutant degron: Degron-ID 6432, SEQ ID NO 1764, 46F_47W_49P_50I_52G_53R_54P_55F_67L",2.011
same,"A63_logFC (Estimated LogFC Coefficient, positive vs negative read counts)","[1]; mutant degron: Degron-ID 6552, SEQ ID NO 1755, 46L 47F_49P_50I_52G_53F_54P 55C 67L",2.023
same,"A63_logFC (Estimated LogFC Coefficient, positive vs negative read counts)","[1]; mutant degron: Degron-ID 6583, SEQ ID NO 1754, 46L_47H_49P_50I_52G_53F_54E_55C_67L",2.028
same,"A63_logFC (Estimated LogFC Coefficient, positive vs negative read counts)","[1]; mutant degron: Degron-ID 7601, SEQ ID NO 1760, 46L_47A_49E_50I_52G_53F_54C_55C_67L",2.006
same,"A63_logFC (Estimated LogFC Coefficient, positive vs negative read counts)","[1]; mutant degron: Degron-ID 7628, SEQ ID NO 1770, 46L_47C_49E_50I_52G_53F_54K_55C_67L",2.001
same,"A63_logFC (Estimated LogFC Coefficient, positive vs negative read counts)","[1]; mutant degron: Degron-ID 7865, SEQ ID NO 1760, 46L 47R_49E_50I_52G_53F_54G_55C_67L",2.019
same,"A63_logFC (Estimated LogFC Coefficient, positive vs negative read counts)","[1]; mutant degron: Degron-ID 7971, SEQ ID NO 1768, 46L_47Y_49E_50I_52G_53F_54N_55C_67L",2.005
same,orthogonality index value (from pDC50 Q147A and pDC50 WT),"[2]; Q147A vs WT ZF, compounds with Q147A Dmax >=0.4 dismissed, 1080 min",> 10
same,degradation against Q147A relative to WT,"[2]; flow cytometry, pDC50 comparison",improved degradation
